From US7447594B2, “Molecular cardiotoxicology modeling” (Ocimum Biosolutions, Inc., priority 2001, dated 2008)

Assays:
[1] = cited from earlier work
[2] = of 19 women treated with cyclophosphamide, thiotepa, and carboplatin; cited from earlier work
[3] = child, high-dose cyclophosphamide; cited from earlier work
[4] = high-dose patients; cited from earlier work
[5] = cited from earlier work; remark: listed apart in the source
cellular glutathione = conditions: cited from earlier work
[6] = cited from earlier work; remark: listed apart in the source
[7] = intravenous injection, four hours post-dose; cited from earlier work
[8] = cited from earlier work; for myocardial necrosis: young and mature rats
[9] = design: species or system male Sprague-Dawley rats; conditions: rat, in vivo, iv
Description: Amphotericin B is a polyene, antifungal antibiotic used to treat fungal infections. Its clinical utility is limited by its nephrotoxicity and cardiotoxicity.
The low and high dose level for each compound are provided in the chart below.
Heart • A sagittal cross-section containing portions of the two atria and of the two ventricles was preserved in 10% NBF. The remaining heart was frozen in liquid nitrogen and stored at ˜−80° C.

[10] = rat, in vivo; cited from earlier work
[11] = cited from earlier work; remark: listed apart in the source
[12] = person, small quantity ingested; cited from earlier work
[13] = patients that do not have heart failure or use insulin; cited from earlier work
[14] = normotensive rats; cited from earlier work
[15] = rats 3 months to 2 years old, dosed over two days; cited from earlier work

Which results are given for `COc1cccc2c1C(=O)c1c(O)c3c(c(O)c1C2=O)C[C@@](O)(C(=O)CO)C[C@@H]3O[C@H]1C[C@H](N)[C@@H](O)[C@H](C)O1` [epirubicin]?
of these patients, deteriorated into congestive heart failure ([1]; human, in vivo): 20%; patients with a 25% relative reduction in left ventricular ejection fraction ([1]; three years after epirubicin treatment, 120 patients): Approximately 59%

For `O=P1(N(CCCl)CCCl)NCCCO1` (centres unmarked) [cyclophosphamide], which “patients who developed moderate congestive heart failure” value [2] is on record?
Its value is “six”.

And the cardiac findings [3]?
Its cardiac findings is “cardiac arrhythmias and intractable hypotension”.

And the “patients who died of congestive heart failure” value [4]?
Its value is “Six”.

And the “patients with clinical cardiotoxicity who were in the high-dose group” value ([5]; out of five patients who developed clinical cardiotoxicity)?
Its value is “four”.

And the “left ventricular mass index” value ([5]; twice-daily high-dose treatment (174+/−34 mg/kg), within a week)?
Its value is “increase in left ventricular mass index”.

Which cellular glutathione levels (cellular glutathione) does the source give for `C=CC=O` [Acrolein, acrolein] here?
Its cellular glutathione levels is “decrease cellular glutathione levels”.

For `COc1cccc2c1C(=O)c1c(O)c3c(c(O)c1C2=O)C[C@@](O)(C(=O)CO)C[C@@H]3O[C@H]1C[C@H](N)[C@H](O)[C@H](C)O1` [adriamycin, doxorubicin], which “serum enzymes (myocardial toxicity)” value ([6]; rat, in vivo) is on record?
Its value is “elevation of serum enzymes such as aspartate transaminase, lactate dehydrogenase, and creatine phosphokinase”.

What does the source list for `NNc1nncc2ccccc12` [hydralazine]?
early focal myocardial lesions (histopathology) [7]: Lesions were observed; blood pressure and heart rate effects ([8]; rat, in vivo): Hypotension and reflex tachycardia; myocardial necrosis [8]: Myocardial necrosis was observed in both age groups

Which myocardial necrosis [8] does the source give for `CC(C)NCC(O)c1ccc(O)c(O)c1` (centres unmarked) [isoproterenol] here?
Its myocardial necrosis is “Myocardial necrosis was observed in both age groups”.

Which cardiomyopathy [9] does the source give for `C[C@@H]1[C@H](O)[C@@H](C)/C=C/C=C/C=C/C=C/C=C/C=C/C=C/[C@H](O[C@@H]2O[C@H](C)[C@@H](O)[C@H](N)[C@@H]2O)C[C@@H]2O[C@](O)(C[C@@H](O)C[C@@H](O)[C@H](O)CC[C@@H](O)C[C@@H](O)CC(=O)O[C@H]1C)C[C@H](O)[C@H]2C(=O)O` [amphotericin B] here?
The cardiomyopathy was “some early signs of cardiomyopathy”.

What does the source list for `CC(C)(C)NCC(O)c1cc(Cl)c(N)c(Cl)c1` (centres unmarked) [clenbuterol]?
muscle hypertrophy [10]: hypertrophy of the heart and latissimus dorsi muscle; aortic root dimensions ([11]; in vivo): significantly increased aortic root dimensions; left ventricular dimensions ([11]; vs exercised and control mares): significantly higher left ventricular internal dimension and interventricular septal wall thickness at end diastole; clinical findings after ingestion [12]: sustained sinus tachycardia, hypokalemia, hypophosphatemia, and hypomagnesemia

With `C[C@H](CS)C(=O)N1CCC[C@H]1C(=O)O` [captopril] as the compound, how does the “serum enzyme levels and white blood cell counts” value ([6]; captopril pre-treatment before adriamycin) read?
Its value is “significant reduction in serum enzyme levels as well as restoration of white blood cell counts”.

For `CN(CCOc1ccc(CC2SC(=O)NC2=O)cc1)c1ccccn1` (centres unmarked) [rosiglitazone], which edema [13] is on record?
Its edema is “moderate-to-severe edema”.

What does the source list for `Nc1cc(N2CCCCC2)nc(N)[n+]1[O-]` [minoxidil]?
cardiac enlargement [14]: enlargement of the left ventricle, right ventricle, and interventricular septum; heart lesions [15]: interstitial hemorrhages at all dose levels; myocardial necrosis [8]: Myocardial necrosis was observed in both age groups
